Data on two compounds can be found in article PMC8642306 (Lung cancer (Amsterdam, Netherlands), 2021).

The nature of series [1]: Plasma pharmacokinetics after oral SNX-5422. The format is in vivo, human.
Series [2] concerns head and neck squamous cancer cell lines. The conditions noted are these: cited from earlier work.
Series [3] has as its system patients with advanced lung cancers. Put plainly: Dose determination. The series is classed as in vivo, human. The note with it: for Dose-limiting toxicities (DLTs): cycle 1, with carboplatin-paclitaxel.
For series [4] the test system is unchanged. The note with it: human, in vivo.
In another series the test system is patients with NSCLC. Put plainly: Anti-tumor activity. The format is in vivo, human.
For series [5], the system named is patients with solid tumors. The note with it: SNX-5422 alone; cited from earlier work.
[6] abbreviates: SNX-5422 doses of 50, 75, and 100 mg/m^2.

Molecules are shown by their SMILES. “And” between values parts separate entries of the source, which are not always exact repeats. Identical values can stand only once.

Consider `CC1(C)CC(=O)c2c(C(F)(F)F)nn(-c3ccc(C(N)=O)c(N[C@H]4CC[C@H](O)CC4)c3)c2C1` [SNX-2112], for which, in series [1] (setting [6]), the “AUC0–24 of SNX-2112, dose proportionality” value is “increased in a slightly greater than proportional manner” and the “Maximum plasma concentration of SNX-2112, dose proportionality” value is “increased in approximate proportion to dose”. Besides, in series [1] (human, plasma, po), the half-life was roughly 8 h. The “Activity with carboplatin and paclitaxel” value in series [2] was “combinatorial activity”.

For `CC1(C)CC(=O)c2c(C(F)(F)F)nn(-c3ccc(C(N)=O)c(N[C@H]4CC[C@H](OC(=O)CN)CC4)c3)c2C1` [SNX-5422], in series [3] (50 mg/m^2 cohort (n=3)), the “Dose-limiting toxicities (DLTs)” value is listed as “no DLTs”. The “Dose-limiting toxicities (DLTs)” value in series [3] (75 mg/m^2 cohort (n=4)) is reported as “no DLTs”. Further, the “Maximum tolerated dose (MTD) of SNX-5422” value in series [3] (qod, in combination with carboplatin (AUC 5) and paclitaxel (175 mg/m^2)) worked out at 100 mg/m^2. Besides, in series [4], the “Any treatment-related AE, All Grade” value is 7 (54) n (%); the “Any treatment-related AE, Grade 1” value is 1 (8) n (%); the “Any treatment-related AE, Grade 2” value is on record as 4 (31) n (%); the “Any treatment-related AE, Grade 3” value is listed as 2 (15) n (%). In addition, in series [4], the “Any treatment-related AE, Grade 4” value is given as 0 n (%); the “Decreased appetite, All Grade” value is 2 (15) n (%); the “Decreased appetite, Grade 1” value was 1 (8) n (%); the “Decreased appetite, Grade 2” value was 1 (8) n (%). Further, in series [4], the “Decreased appetite, Grade 3” value is recorded as 0 n (%); the “Decreased appetite, Grade 4” value was 0 n (%); the “Diarrhea, All Grade” value is reported as 3 (23) n (%); the “Diarrhea, Grade 1” value is 0 n (%). For the same compound, in series [4], the “Diarrhea, Grade 2” value is reported as 1 (8) n (%); the “Diarrhea, Grade 3” value is 2 (15) n (%); the “Diarrhea, Grade 4” value is 0 n (%); the “Fatigue, All Grade” value was 2 (15) n (%). In addition, in series [4], the “Fatigue, Grade 1” value is on record as 1 (8) n (%); the “Fatigue, Grade 2” value was 1 (8) n (%); the “Fatigue, Grade 3” value is 0 n (%); the “Fatigue, Grade 4” value is listed as 0 n (%). In series [4], the “Nausea, All Grade” value was 2 (15) n (%); the “Nausea, Grade 1” value is on record as 2 (15) n (%); the “Nausea, Grade 2” value is 0 n (%); the “Nausea, Grade 3” value is 0 n (%). Also, in series [4], the “Nausea, Grade 4” value is 0 n (%); the Treatment-related decreased appetite is on record as 15%; the Treatment-related diarrhea was found to be 23%; the Treatment-related fatigue stood at 15%. Besides, in series [4], the “Treatment-related grade 3/4 diarrhea” value turned out to be 15%, the “Treatment-related grade 3/4 nausea” value worked out at 0% and the Treatment-related nausea worked out at 15%. The “Concentrations of SNX-5422 in samples collected after dosing” value in series [1] (oral SNX-5422) is on record as “no measurable concentrations”. The “Duration of disease control on single-agent maintenance” value with patients with NSCLC (HER2, RET, KRAS, and EGFR-mutations) is reported as 4–12 months. For the same compound, the “Time on SNX-5422 maintenance” value in the series with patients with NSCLC (another patient with KRAS-mutant NSCLC, unconfirmed response) is ~ 5 months. Moreover, in the series on patients with NSCLC (one patient with HER2-mutant NSCLC, partial response), the “Time on SNX-5422 maintenance” value is 12 months and ~ 12 months. The “Time on SNX-5422 maintenance prior to progression” value with patients with NSCLC (one patient with KRAS-mutant NSCLC, partial response) is ~ 7 months. Further, the “Single-agent maximum tolerated dose (MTD)” value in series [5] is 100 mg/m^2.
